{
  "source": "paper PMC9845987",
  "about": "(Cancer research, 2023)",
  "key": {"p-ERK^T202/Y204": {"tested_on": "p-ERK^T202/Y204", "assay": "Quantitative immunofluorescence of p-ERK in MeWo cells", "assay_type": "cell-based, human", "conditions": "6 h, different concentrations"}, "p-AKT^S473": {"tested_on": "p-AKT^S473", "assay": "Quantitative immunofluorescence of p-AKT in MeWo cells", "assay_type": "cell-based, human", "conditions": "6 h, different concentrations"}, "p-4EBP1^T37/46": {"tested_on": "p-4EBP1^T37/46", "assay": "Quantitative immunofluorescence of p-4EBP1 in MeWo cells", "assay_type": "cell-based, human", "conditions": "6 h, different concentrations"}, "[1]": {"tested_on": "NF1^LoF melanoma cell lines", "assay": "Growth rate inhibition assay", "assay_type": "cell-based, human", "conditions": "for Overall drug sensitivity (area over the dose-response curve): NF1^LoF cell lines; for Normalized growth rate (DIP rate) dose response: nine NF1^LoF melanoma cell lines, 7 day-averaged, four concentrations"}, "SYK": {"target": "SYK (Homo sapiens, UniProt P43405)", "assay": "Biochemical kinase inhibition assay"}, "mTOR": {"target": "mTOR (Homo sapiens, UniProt P42345)", "assay": "Biochemical kinase inhibition assay", "conditions": "10 μM"}, "PI4KB": {"target": "PI4KB (Homo sapiens, UniProt Q9UBF8)", "assay": "Biochemical kinase inhibition assay", "conditions": "10 μM"}, "DNA-PK": {"target": "DNA-PK (Homo sapiens, UniProt P78527)", "assay": "Biochemical kinase inhibition assay", "conditions": "10 μM"}, "MeWo cells": {"tested_on": "MeWo cells", "conditions": "R406 3.16 μM, 72 h"}, "YUHEF cells": {"tested_on": "YUHEF cells", "conditions": "R406 3.16 μM, 72 h"}, "[2]": {"tested_on": "human epidermal primary melanocytes (NHEM-Ad)", "assay": "Growth rate inhibition assay, primary melanocytes", "assay_type": "cell-based", "conditions": "highest concentration (1 μM)"}, "p-BLNK^Y96": {"tested_on": "p-BLNK^Y96", "assay": "Western blot of p-BLNK in IgM-stimulated Ramos cells", "assay_type": "cell-based, human", "conditions": "6 h"}, "COLO792 xenografts": {"tested_on": "COLO792 xenografts", "assay": "In vivo xenograft assay, COLO792", "set-up": "species or system mouse", "conditions": "50 mg/kg IP"}, "WM3918 xenografts": {"tested_on": "WM3918 xenografts", "assay": "In vivo xenograft assay, WM3918", "set-up": "species or system mouse", "conditions": "50 mg/kg IP"}, "[3]": {"tested_on": "p-EGFR^Y1068 in WM3918 xenograft tumors", "assay": "Xenograft pharmacodynamic Western blot", "assay_type": "in vivo, mouse", "conditions": "single dose 100 mg/kg IP; 0.5 h after dosing"}, "[4]": {"tested_on": "p-AKT^S473 in WM3918 xenograft tumors", "assay": "Xenograft pharmacodynamic Western blot", "assay_type": "in vivo, mouse", "conditions": "single dose 100 mg/kg IP; 0.5 h after dosing"}},
  "note": "pIC50: −log10 of the molar value. Read-outs that look alike come from different tables or passages of the source.",
  "data": [
    {"molecule": "COc1ccc(-c2ccc3c(N4CCOC[C@@H]4C)nc(N4CCOC[C@@H]4C)nc3n2)cc1CO", "note": "[AZD8055]", "values": [
      {"measurement": "Change in p-ERK^T202/Y204 levels", "setting": "p-ERK^T202/Y204", "value": "no significant effect"},
      {"measurement": "Change in p-AKT^S473 levels", "setting": "p-AKT^S473", "value": "decreased p-AKT levels in a dose-dependent manner"},
      {"measurement": "Change in p-4EBP1^T37/46 levels", "setting": "p-4EBP1^T37/46", "value": "potently reduced"}
    ]},
    {"molecule": "Cc1nc(-c2nc(-c3ccc(OC(F)(F)F)cc3)no2)nn1Cc1cccc(N2CCC(S(C)(=O)=O)CC2)c1", "note": "[IACS-010759]", "values": [
      {"measurement": "Overall drug sensitivity (area over the dose-response curve)", "setting": "[1]", "value": "similarly sensitive to both IACS-010759 and MTX-216"},
      {"measurement": "Growth inhibition (live cell count, normalized growth rate)", "setting": "[1]; all tested NF1^LoF cell lines, indicated doses", "value": "inhibited growth in a dose-dependent fashion"}
    ]},
    {"molecule": "CS(=O)(=O)Nc1cc(-c2ccc3ncnc(Nc4ccc(F)c(Cl)c4)c3c2)cnc1Cl", "note": "[MTX-211, N-(2-chloro-5-(4-((3-chloro-4-fluorophenyl)amino)quinazolin-6-yl)pyridin-3-yl)methanesulfonamide]", "values": [
      {"measurement": "Change in p-ERK^T202/Y204 levels", "setting": "p-ERK^T202/Y204", "value": "no significant effect"},
      {"measurement": "Change in p-AKT^S473 levels", "setting": "p-AKT^S473", "value": "decreased p-AKT levels in a dose-dependent manner"},
      {"measurement": "Change in p-4EBP1^T37/46 levels", "setting": "p-4EBP1^T37/46", "value": "did not decrease p-4EBP1 levels at concentrations below 1 μM"},
      {"measurement": "pIC50", "setting": "SYK; SYK IC50, 0.5 nM to 10 μM, ATP at Km,app", "value": "~5.22"},
      {"measurement": "inhibition at 10 µM", "setting": "SYK; read-out: % inhibition of SYK", "value": 52, "unit": "%"},
      {"measurement": "Inhibition of mTOR", "setting": "mTOR", "value": "inhibited"},
      {"measurement": "Inhibition of PI4KB", "setting": "PI4KB", "value": "inhibited"},
      {"measurement": "Inhibition of DNA-PK", "setting": "DNA-PK", "value": "inhibited"}
    ]},
    {"molecule": "COc1cc(Nc2ncc(F)c(Nc3ccc4c(n3)NC(=O)C(C)(C)O4)n2)cc(OC)c1OC", "note": "[R406]", "values": [
      {"measurement": "Reduction of growth rate", "setting": "[1]; MeWo, YUHEF and WM3918, R406 at 3.16 μM, 7-day", "value": "approximately 2 fold"},
      {"measurement": "p-S6 and Ki-67 levels", "setting": "MeWo cells", "value": "reduced p-S6 and Ki-67"},
      {"measurement": "p-S6 and Ki-67 levels", "setting": "YUHEF cells", "value": "reduced p-S6 and Ki-67"}
    ]},
    {"molecule": "CS(=O)(=O)N1CCN(Cc2cc3nc(-c4cccc5[nH]ncc45)nc(N4CCOCC4)c3s2)CC1", "note": "[pictilisib]", "values": [
      {"measurement": "Change in p-ERK^T202/Y204 levels", "setting": "p-ERK^T202/Y204", "value": "no significant effect"},
      {"measurement": "Change in p-AKT^S473 levels", "setting": "p-AKT^S473", "value": "decreased p-AKT levels in a dose-dependent manner"},
      {"measurement": "Change in p-4EBP1^T37/46 levels", "setting": "p-4EBP1^T37/46", "value": "did not decrease p-4EBP1 levels at concentrations below 1 μM"}
    ]},
    {"molecule": "CC(=O)Nc1cccc(-n2c(=O)n(C3CC3)c(=O)c3c(Nc4ccc(I)cc4F)n(C)c(=O)c(C)c32)c1", "note": "[trametinib]", "values": [
      {"measurement": "Normalized growth rate (DIP rate) dose response", "setting": "[1]", "value": "potent but less efficacious responses"},
      {"measurement": "Change in p-ERK^T202/Y204 levels", "setting": "p-ERK^T202/Y204", "value": "reduced ERK phosphorylation in a dose-dependent manner"},
      {"measurement": "Change in p-AKT^S473 levels", "setting": "p-AKT^S473", "value": "but not trametinib, decreased p-AKT levels"},
      {"measurement": "Change in p-4EBP1^T37/46 levels", "setting": "p-4EBP1^T37/46", "value": "no effect"}
    ]},
    {"molecule": "CC(C)Nc1cc(-c2c[nH]c(C(=O)N[C@H](CO)c3cccc(Cl)c3)c2)c(Cl)cn1", "note": "[ulixertinib]", "values": [
      {"measurement": "Normalized growth rate (DIP rate) dose response", "setting": "[1]", "value": "potent but less efficacious responses"}
    ]},
    {"molecule": "N-(2-chloro-5-(4-((3-chloro-4-fluorophenyl)amino)-3-cyanoquinolin-6-yl)pyridin-3-yl)methanesulfonamide [MTX-216]", "values": [
      {"measurement": "Overall drug sensitivity (area over the dose-response curve)", "setting": "[1]", "value": "similarly sensitive to both IACS-010759 and MTX-216"},
      {"measurement": "Normalized growth rate (DIP rate) dose response", "setting": "[1]", "value": "consistently cytotoxic"},
      {"measurement": "Cytotoxicity (normalized growth rate)", "setting": "[2]", "value": "no cytotoxicity"},
      {"measurement": "Change in p-ERK^T202/Y204 levels", "setting": "p-ERK^T202/Y204", "value": "no significant effect"},
      {"measurement": "Change in p-AKT^S473 levels", "setting": "p-AKT^S473", "value": "decreased p-AKT levels in a dose-dependent manner"},
      {"measurement": "Change in p-4EBP1^T37/46 levels", "setting": "p-4EBP1^T37/46", "value": "did not decrease p-4EBP1 levels at concentrations below 1 μM"},
      {"measurement": "% inhibition of SYK", "setting": "SYK; 10 μM, ATP at Km,app", "value": 94, "unit": "%"},
      {"measurement": "Potency on SYK relative to MTX-211", "setting": "SYK; ratio of IC50", "value": "~ 21 fold"},
      {"measurement": "pIC50", "setting": "SYK; read-out: SYK IC50, 0.5 nM to 10 μM, ATP at Km,app", "value": 6.55},
      {"measurement": "Inhibition of mTOR", "setting": "mTOR", "value": "inhibited"},
      {"measurement": "Inhibition of PI4KB", "setting": "PI4KB", "value": "inhibited"},
      {"measurement": "Inhibition of DNA-PK", "setting": "DNA-PK", "value": "inhibited"},
      {"measurement": "Inhibition of p-BLNK^Y96 levels", "setting": "p-BLNK^Y96", "value": "more efficient in inhibition of p-BLNK in comparison with MTX-211"},
      {"measurement": "Body weight", "setting": "COLO792 xenografts", "value": "no major loss in body weight"},
      {"measurement": "Tumor growth", "setting": "COLO792 xenografts; 20 days", "value": "suppressed tumor growth"},
      {"measurement": "Body weight", "setting": "WM3918 xenografts", "value": "no major loss in body weight"},
      {"measurement": "Tumor growth", "setting": "WM3918 xenografts; 11 days", "value": "suppressed tumor growth"},
      {"measurement": "p-EGFR levels in excised tumors", "setting": "[3]", "value": "significant reduction"},
      {"measurement": "p-AKT levels in excised tumors", "setting": "[4]", "value": "significant reduction"}
    ]}
  ]
}
